Experimental data taken from patent US20080280837A1, “Biologically Active Compounds with Anti-Angiogenic Properties” (priority 2004, published 2008).
Values joined by “and” are separate entries in the source; they are usually repeats but may differ in a detail not shown here. Equal entries are not always repeated.

Legend:
[1] = tested on: chicken embryo chorioallantoic membrane (CAM) vasculature; assay: Early chicken embryo chorioallantoic membrane (earlyCAM) assay; type: in vivo; settings: for Aretry length (pixels) / CAM increase (fold) / Relative artery length (absolute vessel length (pixels)/CAM area (pixels)) / Relative total vessel length (absolute vessel length (pixels)/CAM area (pixels)) / Relative vein length (absolute vessel length (pixels)/CAM area (pixels)) / Total vessel length (pixels) / Vein diameter (pixels) / Vein length (pixels): mean ± SEM, n = 8
Method: Vein diameter was included as a measure of vessel growth. Where there was more than one major vein branch, the diameters of both were added together to give a total vein diameter. In the control CAM there were two well developed vein branches of similar diameter. In contrast, in the treated CAM there was a single major vein branch. Total vein diameter is 239 pixels in the control CAM, and only 107 pixels in the treated CAM.
When “compound 1” was applied to the CAM, there were dose responsive reductions in CAM growth and vasculature. The effects on CAM growth and vessel parameters were expressed as pixel measures (Table 1) and also as a percentage of the vehicle treated control group (FIG. 1). Vein lengths were reduced at all dose levels of “compound 1”, both in pixel and percentage terms, with a reduction to 67% of control at 5 nmol (p<0.05). […] When artery and vein lengths were combined to give total vessel length there was a significant reduction at the 5 nmol level (FIG. 1; p<0.05). A strong trend to reduced CAM growth with increasing doses of “compound 1” was also present.

[2] = ActiveTox suite of toxicity assays (LDH release, proliferation, ATP content, caspase 3/7, cyp1A induction, P-glycoprotein inhibition, cyp3A induction via PXR or GR); type: cell-based; settings: 10 and 100 μM, quadruplicate
Method: Compounds were analyzed in eight separate assays at concentrations of 10 and 100 μM in quadruplicate. Compounds were assayed tar toxicity via LDH release, inhibition of proliferation, ATP content, caspase 3/7 activation. Compounds were assayed for induction of cyp1A and P-glycoprotein inhibition. Compounds were also assayed for cyp3A induction under conditions which favor activation via the pregnane receptor (PXR) or the glucorticord receptor (GR). Appropriate positive and negative controls were included in each case.

[3] = biological target: T1, Human SST5 somatostatin receptor (SSTR5) (Homo sapiens, UniProt P35346); assay: Filter plate assay for SST5 receptor, displacement of [125I]SST-14; type: binding
T1 construct: expressed in transfected cells; host or cells: HEK-293 EBNA
Summary of the method: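 HEK-293 EBNA membranes expressing human SST5 (5.5 μg) incubated 60 min at 25 °C with 4 nM [125I]SST-14 and compound in pH 7.5 Tris/EGTA/MgCl2/sucrose buffer. Bound radioactivity collected on PEI-coated glass fiber filters and counted; triplicate 1:5 dilution series from 125 μM, non-specific binding with excess cold ligand.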

T1 sequence (P35346 whole entry): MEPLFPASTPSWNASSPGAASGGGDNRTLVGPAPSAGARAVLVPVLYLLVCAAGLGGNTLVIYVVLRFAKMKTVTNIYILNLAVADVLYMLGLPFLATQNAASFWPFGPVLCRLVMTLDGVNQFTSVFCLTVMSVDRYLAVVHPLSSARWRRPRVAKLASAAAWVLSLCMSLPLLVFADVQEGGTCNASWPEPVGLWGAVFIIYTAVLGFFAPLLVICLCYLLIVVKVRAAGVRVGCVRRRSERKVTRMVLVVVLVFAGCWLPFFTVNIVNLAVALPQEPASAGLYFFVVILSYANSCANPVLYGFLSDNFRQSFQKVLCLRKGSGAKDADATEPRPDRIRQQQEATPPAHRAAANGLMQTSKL

Which “Aretry length (pixels)” value ([1]; 0.2 nmol) does the source give for COC[C@H]1O[C@H](OCCc2ccccc2)[C@H](NC(=O)CCCN)[C@@H](OCc2ccc3ccccc3c2)[C@@H]1O [Compound 1] here?
Its value is 1870 ± 109^ pixels.

What about the “CAM increase (fold)” value ([1]; 0.2 nmol) of the same compound?
The value was 9.9 ± 0.9 fold.

What about the “Relative artery length (absolute vessel length (pixels)/CAM area (pixels))” value (“Relative artery length” below) ([1]; 0.2 nmol) of the same compound?
Its value is 43.0 ± 3.7.

What about the “Relative total vessel length (absolute vessel length (pixels)/CAM area (pixels))” value (from here on “Relative total vessel length”) ([1]; 0.2 nmol) of the same compound?
The value was 79.9 ± 5.8.

What about the “Relative vein length (absolute vessel length (pixels)/CAM area (pixels))” value (“Relative vein length” for short) ([1]; 0.2 nmol) of the same compound?
Its value is 36.9 ± 3.4.

And the “Total vessel length (pixels)” value ([1]; 0.2 nmol)?
The value was 3498 ± 222^ pixels.

And the “Vein diameter (pixels)” value ([1]; 0.2 nmol)?
The value was 191 ± 10 pixels.

And the “Vein length (pixels)” value ([1]; 0.2 nmol)?
The value was 1628 ± 183^ pixels.

And the “Artery length as percentage of vehicle treated control (maximal reduction)” value ([1]; 1 nmol)?
Its value is 86 % of control.

And the “Aretry length (pixels)” value ([1]; 1 nmol)?
Its value is 1544 ± 214^ pixels.

And the “CAM increase (fold)” value ([1]; 1 nmol)?
Its value is 9.9 ± 0.8 fold.

And the “Relative artery length” value ([1]; 1 nmol)?
The value was 34.7 ± 4.7.

What about the “Relative total vessel length” value ([1]; 1 nmol) of the same compound?
Its value is 71.3 ± 6.3.

What about the “Relative vein length” value ([1]; 1 nmol) of the same compound?
The value was 36.5 ± 2.4.

And the “Total vessel length (pixels)” value ([1]; 1 nmol)?
The value was 3169 ± 341^ pixels.

What about the “Vein diameter (pixels)” value ([1]; 1 nmol) of the same compound?
Its value is 187 ± 15 pixels.

What about the “Vein length (pixels)” value ([1]; 1 nmol) of the same compound?
Its value is 1625 ± 166^1 pixels.

And the “Reduction in vein diameter versus control” value ([1]; 5 nmol)?
Its value is “approximately 25%”.

And the “Aretry length (pixels)” value ([1]; 5 nmol)?
The value was 1510 ± 196^ pixels.

What about the “CAM increase (fold)” value ([1]; 5 nmol) of the same compound?
Its value is 8.9 ± 0.8 fold.

What about the “Relative artery length” value ([1]; 5 nmol) of the same compound?
Its value is 36.4 ± 3.0.

What about the “Relative total vessel length” value ([1]; 5 nmol) of the same compound?
The value was 71.6 ± 3.7.

What about the “Relative vein length” value ([1]; 5 nmol) of the same compound?
The value was 35.1 ± 2.6.

What about the “Total vessel length (pixels)” value ([1]; 5 nmol) of the same compound?
Its value is 2939 ± 292^1 pixels.

What about the “Vein length (pixels)” value ([1]; 5 nmol) of the same compound?
Its value is 1429 ± 141^1 pixels.

What about the “Vein diameter (pixels)” value ([1]; 5 nmol, p = 0.057) of the same compound?
The value was 157 pixels and 157 ± 23 pixels.

What about the “Vein length as percentage of vehicle treated control” value ([1]; 5 nmol, p<0.05) of the same compound?
The value was 67 % of control.

What about the Total vein diameter ([1]; single treated CAM (control CAM 239 pixels), dose not stated) of the same compound?
Its Total vein diameter is 107 pixels.

What about the “Effects in the eight ActiveTox assays” value [2] of the same compound?
Its value is “no statistical effects”.

What about the IC50 ([3]; concentration required to displace 50% of the competitive radioligand, read-out: IC50 SSTR5) of the same compound?
Its IC50 is 322 nM.

What about the “selectivity SSTR5” value ([3]; normalized IC50: lowest IC50 for a compound = 1) of the same compound?
The value was 1.

What about the “Hillslope SSTR5” value ([3]; slope of binding curve) of the same compound?
Its value is 0.71.
